From US20260297109A1, “COMPOUNDS AS SUMO ACTIVATING ENZYME INHIBITORS” (WIGEN BIOMEDICINE TECHNOLOGY (SHANGHAI) CO., LTD., priority 2022, published 2026)

These molecules were tested against T1, SAE (Homo sapiens, UniProt Q9UBT2) (assay: SUMO IF: in vitro inhibitory activity assay against SAE in HCT116 cells (SUMO-2/3 immunofluorescence)). Conditions: class symbols, 6 h at 37° C.
T1 construct: endogenous in cells; host or cells: HCT116
T1 sequence (Q9UBT2 1-640): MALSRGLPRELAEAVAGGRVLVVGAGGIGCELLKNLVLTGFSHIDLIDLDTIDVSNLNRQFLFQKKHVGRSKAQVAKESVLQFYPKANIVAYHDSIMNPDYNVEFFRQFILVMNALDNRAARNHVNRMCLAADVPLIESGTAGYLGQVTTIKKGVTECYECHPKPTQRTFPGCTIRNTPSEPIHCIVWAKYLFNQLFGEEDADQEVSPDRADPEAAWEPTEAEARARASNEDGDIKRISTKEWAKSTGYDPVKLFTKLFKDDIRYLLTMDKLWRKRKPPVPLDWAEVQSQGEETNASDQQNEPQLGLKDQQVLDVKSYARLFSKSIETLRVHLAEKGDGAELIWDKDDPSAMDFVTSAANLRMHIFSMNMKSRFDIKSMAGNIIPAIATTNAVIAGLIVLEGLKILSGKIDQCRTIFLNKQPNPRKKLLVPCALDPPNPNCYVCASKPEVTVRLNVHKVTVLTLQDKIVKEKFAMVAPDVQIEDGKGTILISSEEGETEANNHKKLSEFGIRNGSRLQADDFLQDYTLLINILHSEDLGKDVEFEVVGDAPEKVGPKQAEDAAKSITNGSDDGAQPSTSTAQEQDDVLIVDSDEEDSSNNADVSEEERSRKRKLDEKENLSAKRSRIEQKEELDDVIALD
T1 sequence (Q9UBE0 1-346): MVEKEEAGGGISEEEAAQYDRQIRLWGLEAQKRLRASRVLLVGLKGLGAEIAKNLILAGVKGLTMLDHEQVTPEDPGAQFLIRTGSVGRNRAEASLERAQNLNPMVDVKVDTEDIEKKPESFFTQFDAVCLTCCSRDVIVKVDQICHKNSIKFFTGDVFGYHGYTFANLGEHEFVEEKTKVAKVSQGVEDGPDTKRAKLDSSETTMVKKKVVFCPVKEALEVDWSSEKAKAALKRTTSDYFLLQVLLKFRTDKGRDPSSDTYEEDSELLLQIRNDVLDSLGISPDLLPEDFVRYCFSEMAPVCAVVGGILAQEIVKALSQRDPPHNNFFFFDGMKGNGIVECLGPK
Assay type: cell-based
Description: Biological Example 1. In Vitro Inhibitory Activity Assay of Compounds of the Present Disclosure Against SAE
HCT116 cells were seeded into a 96-well black transparent bottom plate at about 20000/well with 90 μL per well. The cells were incubated at 37° C. overnight for 24 h. The test compounds were 10-fold diluted to give a final concentration, and 10 μL of the diluted compounds was added to each well of the cell culture plate. The mixture was incubated at 37° C. for 6 h. The cells were then washed gently, the culture medium was discarded, and the cells were washed once with 200 μL of 0.1% PBST. 50 μL of 4% PFA was added to each well, and the cells were immobilized at room temperature for 20 min, and then washed with PBS 2-3 times. 50 μL of 0.2% Triton X-100 was added to each well, and the cells were left to stand at room temperature for 15 min and washed with 0.1% PBST 3 times. 100 μL of 3% BSA (0.6 g BSA+20 mL PBS) was added to each well, and the mixture was blocked at 37° C. for 30 min. After the blocking was completed, the liquid was removed and a primary antibody (SUMO-2/3 (18H8) Rabbit mAb, 1:400 dilution) was prepared with 1% BSA. 30 μL of the diluted primary antibody was added to each well, and the mixture was incubated at 4° C. overnight. The cells were washed 3 times with 200 μL of 0.1% PBST. A FITC secondary antibody (Fluorescein (FITC)-conjugated Affinipure Goat Anti-Rabbit IgG (H+L), 1:300 dilution) was further prepared with 1% BSA, and 40 μL of the diluted secondary antibody was added to each well. The mixture was incubated at room temperature in the dark for 2 h, and then the cells were washed 4 times with 0.1% PBST. The fluorescence signal of the sample was detected and compared to the DMSO group, and the inhibition rate and IC50 were calculated.

SMILES | IC50 [µM]
NS(=O)(=O)OC[C@H]1[C@H](F)[C@@H](Nc2ncncc2C(=O)c2cc3c(s2)CC[C@]32NCCc3ccc(C4CC4)cc32)C[C@@H]1O [Compound 688] | 0.05 to 0.2
CC1Cc2ccc(Cl)cc2[C@@]2(C=Cc3sc(C(=O)c4cncnc4N[C@H]4C[C@H](O)[C@@H](COS(N)(=O)=O)[C@@H]4F)cc32)N1 (stereo partly shown) [Compound 1058] | 0.05 to 0.2
CN1Cc2sc(C(=O)c3cncnc3N[C@H]3C[C@H](O)[C@@H](COS(N)(=O)=O)[C@@H]3F)cc2[C@@]2(C1)OCCc1ccccc12 [Compound 718] | > 0.2
COc1cc2c(cc1Cl)[C@@]1(CCc3sc(C(=O)c4cncnc4N[C@H]4C[C@H](O)[C@@H](COS(N)(=O)=O)[C@@H]4F)cc31)NCC2 [Compound 696] | 0.05 to 0.2
NS(=O)(=O)OC[C@H]1[C@H](F)[C@@H](Nc2ncncc2C(=O)c2cc3c(s2)CCC[C@]32NCC3(CC3)c3ccc(Cl)cc32)C[C@@H]1O [Compound 617] | ≤ 0.05
NS(=O)(=O)OC[C@H]1[C@H](F)[C@@H](Nc2ncncc2C(=O)c2cc3c(s2)CSC[C@@]32NCCc3ccccc32)C[C@@H]1O [Compound 295] | > 0.2
[2H]C1([2H])CNC2(CCCc3sc(C(=O)c4cncnc4N[C@H]4C[C@H](O)[C@@H](COS(N)(=O)=O)[C@@H]4F)cc32)c2cc(Cl)ccc21 (stereo partly shown) [Compound 663] | ≤ 0.05
NS(=O)(=O)OC[C@H]1[C@H](F)[C@@H](Nc2ncncc2C(=O)c2cc3c(s2)CC[C@]32NCCc3cc(F)c(F)cc32)C[C@@H]1O [Compound 691] | ≤ 0.05
NS(=O)(=O)OC[C@H]1[C@H](F)[C@@H](Nc2ncncc2C(=O)c2cc3c(s2)COC[C@]32NCCc3c(Cl)cc(Cl)cc32)C[C@@H]1O [Compound 566] | 0.05 to 0.2
NS(=O)(=O)OC[C@H]1[C@H](F)[C@@H](Nc2ncncc2C(=O)c2cc3c(s2)COCC32NCCc3c(F)cc(Cl)cc32)C[C@@H]1O (stereo partly shown) [Compound 573] | 0.05 to 0.2
NS(=O)(=O)OC[C@H]1[C@H](F)[C@@H](Nc2ncncc2C(=O)c2cc3c(s2)OC[C@@]32NCCc3ccc(Cl)cc32)C[C@@H]1O [Compound 146] | > 0.2
CN1CCc2ccc(Cl)cc2[C@]12CCCc1sc(C(=O)c3cncnc3N[C@H]3C[C@H](O)[C@@H](COS(N)(=O)=O)[C@@H]3F)cc12 [Compound 595] | > 0.2
N#Cc1ccc2c(c1)[C@@]1(C=Cc3sc(C(=O)c4cncnc4N[C@H]4C[C@H](O)[C@@H](COS(N)(=O)=O)[C@@H]4F)cc31)OCC2 [Compound 764] | ≤ 0.05
CC1CNC2(CCCc3sc(C(=O)c4cncnc4N[C@H]4C[C@H](O)[C@@H](COS(N)(=O)=O)[C@@H]4F)cc32)c2cc(Cl)ccc21 (stereo partly shown) [Compound 1020] | 0.05 to 0.2
NS(=O)(=O)OC[C@H]1[C@H](F)[C@@H](Nc2ncncc2C(=O)c2cc3c(s2)CSCC32NCCc3ccc(Cl)cc32)C[C@@H]1O (stereo partly shown) [Compound 300] | ≤ 0.05
NS(=O)(=O)OC[C@H]1[C@H](F)[C@@H](Nc2ncncc2C(=O)c2cc3c(s2)CN(C2CC2)C[C@@]32OCCc3ccc(Cl)cc32)C[C@@H]1O [Compound 742] | > 0.2
NS(=O)(=O)OC[C@H]1[C@H](F)[C@@H](Nc2ncncc2C(=O)c2cc3c(s2)COCC32NCCc3cc(Cl)c(Cl)cc32)C[C@@H]1O (stereo partly shown) [Compound 561] | 0.05 to 0.2
NS(=O)(=O)OC[C@H]1[C@H](F)[C@@H](Nc2ncncc2C(=O)c2cc3c(s2)CCC32OCCc3ccc(F)cc32)C[C@@H]1O (stereo partly shown) [Compound 747] | 0.05 to 0.2

SMILES | IC50 [µM]
NS(=O)(=O)OC[C@H]1[C@H](F)[C@@H](Nc2ncncc2C(=O)c2cc3c(s2)C=CC32OCCc3ccc(Cl)cc32)C[C@@H]1O (stereo partly shown) [Compound 759] | ≤ 0.05
NS(=O)(=O)OC[C@H]1[C@H](F)[C@@H](Nc2ncncc2C(=O)c2cc3c(s2)CCC32NCCc3ccncc32)C[C@@H]1O (stereo partly shown) [Compound 160] | 0.05 to 0.2
NS(=O)(=O)CC[C@H]1[C@H](F)[C@@H](Nc2ncncc2C(=O)c2cc3c(s2)CCC[C@]32NCCc3ccc(Cl)cc32)C[C@@H]1O [Compound 638] | 0.05 to 0.2
COc1ccc2c(c1)C1(CCc3sc(C(=O)c4cncnc4N[C@H]4C[C@H](O)[C@@H](COS(N)(=O)=O)[C@@H]4F)cc31)NCC2 (stereo partly shown) [Compound 150] | > 0.2
Nc1sc(C(=O)c2cncnc2N[C@H]2C[C@H](O)[C@@H](COS(N)(=O)=O)[C@@H]2F)cc1C1NCCc2ccc(Cl)cc21 (stereo partly shown) [Compound 264] | 0.05 to 0.2
N#Cc1ccc2c(c1)C1(C=Cc3sc(C(=O)c4cncnc4N[C@H]4C[C@H](O)[C@@H](COS(N)(=O)=O)[C@@H]4F)cc31)OCC2 (stereo partly shown) [Compound 762] | 0.05 to 0.2
COc1cc2c(cc1Cl)C1(CCCc3sc(C(=O)c4cncnc4N[C@H]4C[C@H](O)[C@@H](COS(N)(=O)=O)[C@@H]4F)cc31)NCC2 (stereo partly shown) [Compound 115] | 0.05 to 0.2
Cc1sc(C(=O)c2cncnc2N[C@H]2C[C@H](O)[C@@H](COS(N)(=O)=O)[C@@H]2F)cc1C1NCCc2ccc(C3CC3)cc21 (stereo partly shown) [Compound 242] | 0.05 to 0.2
NS(=O)(=O)OC[C@H]1[C@H](F)[C@@H](Nc2ncncc2C(=O)c2cc3c(s2)COC[C@@]32NCCc3ccc(F)cc32)C[C@@H]1O [Compound 101] | > 0.2
NS(=O)(=O)OC[C@H]1[C@H](F)[C@@H](Nc2ncncc2C(=O)c2cc3c(s2)CCC[C@]32NCCc3ccc(Cl)nc32)C[C@@H]1O [Compound 602] | ≤ 0.05
NS(=O)(=O)OC[C@H]1[C@H](F)[C@@H](Nc2ncncc2C(=O)c2cc3c(s2)C(F)(F)C[C@]32NCCc3ccc(F)cc32)C[C@@H]1O [Compound 626] | 0.05 to 0.2
NS(=O)(=O)OC[C@H]1[C@H](F)[C@@H](Nc2ncncc2C(=O)c2cc3c(s2)CSC[C@]32NCCc3ncc(Cl)cc32)C[C@@H]1O [Compound 614] | ≤ 0.05
COc1ccc2c(c1)[C@@]1(CCc3sc(C(=O)c4cncnc4N[C@H]4C[C@H](O)[C@@H](COS(N)(=O)=O)[C@@H]4F)cc31)NCC2 [Compound 689] | 0.05 to 0.2
Cc1cc2c(cc1Cl)[C@@]1(CCCc3sc(C(=O)c4cncnc4N[C@H]4C[C@H](O)[C@@H](COS(N)(=O)=O)[C@@H]4F)cc31)NCC2 [Compound 673] | ≤ 0.05
NS(=O)(=O)OC[C@H]1[C@H](F)[C@@H](Nc2ncncc2C(=O)c2cc3c(s2)CCCC32OCCc3ccccc32)C[C@@H]1O (stereo partly shown) [Compound 708] | > 0.2
NS(=O)(=O)OC[C@H]1[C@H](F)[C@@H](Nc2ncncc2C(=O)c2cc3c(s2)CO[C@]32NCCc3ccc(Cl)cc32)C[C@@H]1O [Compound 703] | 0.05 to 0.2
C#CCN1Cc2sc(C(=O)c3cncnc3N[C@H]3C[C@H](O)[C@@H](COS(N)(=O)=O)[C@@H]3F)cc2C2(C1)NCCc1ccc(Cl)cc12 (stereo partly shown) [Compound 657] | ≤ 0.05

Same assay, conditions: numeric values, 6 h at 37° C.

SMILES | IC50 [µM]
C#CCN1Cc2sc(C(=O)c3cncnc3N[C@H]3C[C@H](O)[C@@H](COS(N)(=O)=O)[C@@H]3F)cc2[C@@]2(C1)NCCc1ccc(Cl)cc12 [Compound 658] | > 1
NS(=O)(=O)OC[C@H]1[C@H](F)[C@@H](Nc2ncncc2C(=O)c2cc3c(s2)CC[C@@]32NCCc3ccccc32)C[C@@H]1O [Compound 128] | > 1
NS(=O)(=O)OC[C@H]1[C@H](F)[C@@H](Nc2ncncc2C(=O)c2cc3c(s2)CCC[C@@]32NCCc3ccc(Cl)cc32)C[C@@H]1O [Compound 89] | > 1
CC(C)N1Cc2sc(C(=O)c3cncnc3N[C@H]3C[C@H](O)[C@@H](COS(N)(=O)=O)[C@@H]3F)cc2[C@@]2(C1)NCCc1ccc(Cl)cc12 [Compound 649] | > 1
Cc1sc(C(=O)c2cncnc2N[C@H]2C[C@H](O)[C@@H](COS(N)(=O)=O)[C@@H]2F)cc1[C@@H]1NCCc2ccc(F)cc21 [Compound 236] | 0.0731
